Data from patent US20140193436A1, “EXTRACELLULAR TARGETED DRUG CONJUGATES” (priority 2011, published 2014).
Where two headings read alike, the source gives them in different places.

Key:
[1] = tested on: HT-29 human colon cancer xenograft; test: HT-29 human colon cancer xenograft model; type: in vivo, Hsd:Athymic Nude-Foxn1nu mice; settings: 15 mg/kg qd×5 (positive control); compared to vehicle
Method: Briefly, to establish a human colorectal adenocarcinoma disease model, tumors from HT-29 xenograft bearing mice were minced and 8 mm^3 fragments were transplanted s.c. by trocar needle into the left flank of Hsd:Athymic Nude-Foxn1^nu mice (Harlan, Indianapolis, Ind.). Therapy with EDC2.2 was then initiated when the tumor volume in groups of 7 animals averaged ˜100 mm^3. Treatment using vehicle control and either 1 or 5 mg/kg EDC2.2 was administered i.v. using the schedule of one injection every 3 days with 4 total injected doses (q3d×4). 15 mg/kg paclitaxel dosed at qd×5 served as a positive control treatment group. Tumor volumes were measured for each group using calibrated vernier calipers and plotted against first day of tumor implant for 69 days post-implant and 41 days post-initial dose. […] Therefore, EDCs that employ targeting moieties to CD147 conjugated to agents that act on the Na,K-ATPase should be generally useful in treating colon cancers.

H460 LCLC cells = test: In vitro cytotoxicity assessment (CellTiter-Glo cell viability), H460; type: cell-based, human
Excerpt: (§1) Cells and culture conditions: Cell lines H460, HT29, A549, PANC-1, MB231, FaDu, H69 and H929 were obtained from the American Type Culture Collection (ATCC), Manassas, Va. The malignant melanoma cell line LOX IMVI was obtained from the DCTD Tumor Repository, National Cancer Institute, Frederick, Md., The cell lines were maintained in the recommended media formulations and subcultured every 3 to 4 days. To activate expression of certain targets to which the drug moiety bind and/or to form Na,K-ATPase complexes with certain proteins, cells can be cultured in recommended media plus additives such as phorbol esters, various growth factors and cytokines such as VEGF, fibroblast growth factors, human growth factors, interleukins, and tumor necrosis factors. In addition, cells can be cocultured with other cells like human fibroblasts. Additionally, microtiter plates can be coated with various proteins like fibrinogen.
(§2) Cells were incubated in the presence of test compound for 72 hr prior to cell viability testing.

HT29 Colon cells = test: In vitro cytotoxicity assessment (CellTiter-Glo cell viability), HT29; type: cell-based, human
Excerpt: as §1, §2

A549 NSCLC cells = test: In vitro cytotoxicity assessment (CellTiter-Glo cell viability), A549; type: cell-based, human
Excerpt: as §1, §2

PANC1 Pancreas cells = test: In vitro cytotoxicity assessment (CellTiter-Glo cell viability), PANC1; type: cell-based, human
Excerpt: as §1, §2

MB231 Breast cells = test: In vitro cytotoxicity assessment (CellTiter-Glo cell viability), MB231; type: cell-based, human
Excerpt: as §1, §2

FaDu Head/neck cells = test: In vitro cytotoxicity assessment (CellTiter-Glo cell viability), FaDu; type: cell-based, human
Excerpt: as §1, §2

H69 SCLC cells = test: In vitro cytotoxicity assessment (CellTiter-Glo cell viability), H69; type: cell-based, human
Excerpt: as §1, §2

[2] = tested on: LOX Melanoma cells (LOX IMVI); test: In vitro cytotoxicity assessment (CellTiter-Glo cell viability), LOX; type: cell-based, human
Excerpt: as §1, §2

H929 Myeloma cells = test: In vitro cytotoxicity assessment (CellTiter-Glo cell viability), H929; type: cell-based, human
Excerpt: as §1, §2

With `CC(=O)O[C@H]1C(=O)[C@@]2(C)[C@H]([C@H](OC(=O)c3ccccc3)[C@]3(O)C[C@H](OC(=O)[C@H](O)[C@@H](NC(=O)c4ccccc4)c4ccccc4)C(C)=C1C3(C)C)[C@]1(OC(C)=O)CO[C@@H]1C[C@@H]2O` [Paclitaxel, paclitaxel] the “growth inhibition of the tumor” value [1] was 85%.
In the case of `C[C@]12CC[C@H](O[C@H]3OC[C@H](NC(=O)CCOCCOCCOCCOCCOCCOCCOCCOCCOCCOCCOCCOCCOCCOCCOCCOCCOCCOCCOCCOCCOCCOCCOCCOCCNC(=O)CCN4C(=O)C=CC4=O)[C@H](O)C3O)C=C1CCC1C2CC[C@]2(C)[C@@H](c3ccc(=O)oc3)CC[C@]12O` (stereo partly shown) [CEN010-105], the EC50 (H460 LCLC cells; Homo sapiens, NCI-H460, 72 h) is reported as 76.9 nM, the EC50 (HT29 Colon cells; Homo sapiens, HT-29, 72 h) is reported as 60 nM and the EC50 (A549 NSCLC cells; Homo sapiens, A549, 72 h) is reported as 31.3 nM. For the same compound, the EC50 (PANC1 Pancreas cells; Homo sapiens, PANC-1, 72 h) was 27.1 nM, the EC50 (MB231 Breast cells; Homo sapiens, 72 h) was 109 nM and the EC50 (FaDu Head/neck cells; Homo sapiens, FaDu, 72 h) was 75.5 nM. The EC50 (H69 SCLC cells; Homo sapiens, 72 h) was 26.6 nM, the EC50 ([2]; Homo sapiens, LOX, 72 h) was 71 nM and the EC50 (H929 Myeloma cells; Homo sapiens, NCI-H929, 72 h) was 89.6 nM.
With `C[C@]12CC[C@H](OC3OC[C@H](N)[C@@H](O)[C@@H]3O)C=C1CCC1C2CC[C@]2(C)[C@@H](c3ccc(=O)oc3)CC[C@]12O` (stereo partly shown) [CEN09-106] the EC50 (H460 LCLC cells; H460 LCLC, 72 hr with test compound, read-out: EC50) was 1.4 nM, the EC50 (HT29 Colon cells; HT29 Colon, 72 hr with test compound, read-out: EC50) was 2.9 nM and the EC50 (A549 NSCLC cells; A549 NSCLC, 72 hr with test compound, read-out: EC50) was 0.66 nM. The EC50 (PANC1 Pancreas cells; PANC1 Pancreas, 72 hr with test compound, read-out: EC50) was 1.1 nM, the EC50 (MB231 Breast cells; MB231 Breast, 72 hr with test compound, read-out: EC50) was 3.3 nM and the EC50 (FaDu Head/neck cells; FaDu Head/neck, 72 hr with test compound, read-out: EC50) was 3.1 nM. The EC50 (H69 SCLC cells; H69 SCLC, 72 hr with test compound, read-out: EC50) was 1 nM, the EC50 ([2]; LOX Melanoma, 72 hr with test compound, read-out: EC50) was 2.5 nM and the EC50 (H929 Myeloma cells; H929 Myeloma, 72 hr with test compound, read-out: EC50) was 3.1 nM.
